Measured values reported in patent US20100093804A1, “NOVEL CRYSTALLINE FORM OF LANSOPRAZOLE” (HETERO DRUGS LIMITED, priority 2006, published 2010).
Like-named read-outs stand apart in the source and are kept apart here.

Experiments:
[1] = solid-solid transition to form A; cited from earlier work
[2] = cited from earlier work
[3] = stability of the crystalline form over time; assay type: physicochemical

Cc1c(OCC(F)(F)F)ccnc1C[S+]([O-])c1nc2ccccc2[nH]1 (stereo not shown) [crystalline lansoprazole form B, 2-[[[3-Methyl-4-(2,2,2-trifluoro-ethoxy)-2-pyridinyl]methyl]sulfinyl]-1H-benzimidazole]
stability of crystalline form [1]: unstable

Cc1c(OCC(F)(F)F)ccnc1C[S+]([O-])c1nc2ccccc2[nH]1 (stereo not shown) [lansoprazole crystalline form II, 2-[[[3-Methyl-4-(2,2,2-trifluoro-ethoxy)-2-pyridinyl]methyl]sulfinyl]-1H-benzimidazole]
stability of crystalline form on storage ([2]; after some period of sample storage at higher temperatures): converted to stable crystalline form I | stability of crystalline form ([2]; at temperatures below 0° C.): stable

Cc1c(OCC(F)(F)F)ccnc1C[S+]([O-])c1nc2ccccc2[nH]1 (stereo not shown) [lansoprazole form III, 2-[[[3-Methyl-4-(2,2,2-trifluoro-ethoxy)-2-pyridinyl]methyl]sulfinyl]-1H-benzimidazole]
stability of crystalline form [3]: stable
